Non-standard residues stand in square brackets, D forms with d. Residues, ends and D or L forms follow the SMILES beside them.
What was measured:
[1] = system: U-87MG xenograft tumors; experiment: TUNEL staining of xenograft tumor sections; format: in vivo, human U-87MG in nude mice; details: s.c. U-87MG tumor sections; Fig 4A
Excerpt: Red color indicates PI nuclear staining and green color TUNEL staining. B. Representative sections from PBS/DMSO- and peptide-TTs IHC stained for p53, Cyto c, AIF, Caspase 3 and Smac/Diablo and then hematoxylin-stained and visualized by microscopy. C. Tissue lysates obtained from controls and several Tf-D-LP4-TTs were immunoblotted for p53, Caspase 8, Cyto c, Smac/Diablo, Caspase 3 and Bcl-2. D. Quantitative analysis of immunoblots is shown (n=2-4).
Paraffin-embedded -fixed tumors sections were processed for a TUNEL assay using the DeadEnd Fluorometric TUNEL system (Promega) according to the manufacturer's instructions. Sections were deparaffinized, equilibrated in PBS, permeabilized with proteinase K, post-fixed in 4% paraformaldehyde, and incubated in TdT reaction mix for 1 h at 37 °C in the dark. Slides were then washed in 2X SSC buffer and counterstained with propidium iodide (1 μg/ml), and cover-slipped with Vectashield mounting medium. Fluorescent images of apoptotic cells (green) and cell nuclei (red) were captured using a confocal microscope (Olympus 1×81).

[2] = system: GL-261MG cells; experiment: Cell death by PI staining and flow cytometry, GL-261MG; format: cell-based; details: mouse glioblastoma, 6 h at 37°C, serum-free medium, Suppl Fig 1
Procedure: (§1) Cells (6×10^5 /ml) were incubated in 500 μl serum-free medium with the peptide of interest for 6 h at 37°C in the presence of 5% CO2. The cells were then trypsinized, centrifuged (1500xg, 5 min), washed with PBS and analyzed for cell death using propidium iodide (PI) staining and flow cytometer (Beckton-Dickinson, San Jose, CA) and BD CellQuest Pro software. Apoptotic cell death was also analyzed by PI and annexin V-FITC staining, and by acridine orange and ethidium bromide staining and light microscopy (Olympus LX2-KSP). […]
(§2) was subsequently visualized by incubating with DAB. […]
(§3) Supplementary Figure 1: VDAC1-based peptides induce dramatic cell death of several brain tumor-derived cell […]
(§4) Ter-Antp (●) peptide in serum-free appropriate growth medium for 6 h at 37°C. Cells were harvested, washed twice with PBS and cell death was analyzed by propidium iodide (PI) staining and ﬂow cytometry. D. Summary of IC50 values (μM) for the peptides with the indicated […]
(§5) (also on this page, place not known: www.impactjournals.com/oncotarget/ Oncotarget, Materials 2017 V , Supplementary) […]

[3] = system: SH-SY5Y cells; experiment: Cell death by PI staining and flow cytometry, SH-SY5Y; format: cell-based; details: human neuroblastoma, 6 h at 37°C, serum-free medium, Suppl Fig 1
Procedure: as §1, §2, §3, §4, §5

[4] = Blood-brain barrier crossing in the intracranial xenograft model; format: in vivo, mouse; details: i.v.; concluded from intracranial tumor model
Procedure: B. U-87MG cells (2×10^5) were incubated for 12 h with the indicated concentrations of DMSO, Retro-Tf-D-LP4 peptide (Pep), or Retro-Tf-D-LP4 encapsulated in PLGA nanoparticles (PLGA-Pep). Samples of Retro-Tf-D-LP4 encapsulated in PLGA nanoparticles were centrifuged (15000g, 5 min) to separate the supernatant (Sup), containing free peptide, and the pellet, containing encapsulated Retro-Tf-D-LP4 peptide. Cell death was analyzed by PI staining and FACS analysis. C. Graphical representation of the orthotopic animal experiment. D. MRI imaging of brains 29 days post-intravenal treatment start with DMSO (1.05%), Retro-Tf-D-LP4 (10 mg/kg) encapsulated in PLGA nanoparticles or Tf-D-Retro-LP4 peptide (10 mg/Kg), as described in Materials and Methods available online in Supplemental information. E. Calculated tumor volumes after 20 (dark grey bars) and 29 (light grey bars) days post-treatment start. Results = mean ± SE (n = 6) (* p<0.05, *** p<0.001). F. Kaplan-Meier survival curves showing statistically significant differences in survival curves between the PBS/DMSO and Retro-Tf-D-LP4 treated mice. […]
For the intracranial-orthotopic xenograft mouse model, U-87MG cells (8×10^4) were engrafted into a nude mouse brain using a stereotactic device. […] Tumor volume was analyzed using VivoQuant 2.10 software.

SMILES	TUNEL-positive cells [1]	cell death, GL-261MG [2]	cell death, SH-SY5Y [3]	crossing of the blood-brain barrier / reaching the brain [4]
CC[C@@H](C)[C@@H](NC(=O)[C@@H](CCCCN)NC(=O)[C@H](NC(=O)[C@@H](CCC(N)=O)NC(=O)[C@@H](CCCNC(=N)N)NC(=O)[C@@H](CC(C)C)NC(=O)CNC(=O)[C@@H](Cc1ccccc1)NC(=O)CNC(=O)[C@@H](Cc1ccc(O)cc1)NC(=O)CNC(=O)[C@@H](CCCCN)NC(=O)[C@H](NC(=O)[C@@H](Cc1ccccc1)NC(=O)[C@H](NC(=O)[C@@H](CC(=O)O)NC(=O)[C@H](N)CCCNC(=N)N)C(C)C)[C@H](C)O)[C@H](C)CC)C(=O)N[C@H](Cc1c[nH]c2ccccc12)C(=O)N[C@H](Cc1ccccc1)C(=O)N[C@H](CCC(N)=O)C(=O)N[C@H](CC(N)=O)C(=O)N[C@H](CCCNC(=N)N)C(=O)N[C@H](CCCNC(=N)N)C(=O)N[C@H](CCSC)C(=O)N[C@H](CCCCN)C(=O)N[C@H](Cc1c[nH]c2ccccc12)C(=O)N[C@H](CCCCN)C(=O)N[C@H](CCCCN)C(=O)O [D-ΔN-Ter-Antp] (H-[dR][dD][dV][dF][dT][dK]G[dY]G[dF]G[dL][dR][dQ][dI][dK][dI][dW][dF][dQ][dN][dR][dR][dM][dK][dW][dK][dK]-OH; N-terminus and C-terminus assumed)	the majority of the cells were TUNEL-positive	effectively induce cell death	effectively induce cell death	–
CC[C@H](C)[C@H](NC(=O)[C@H](Cc1ccc(O)cc1)NC(=O)[C@@H]1CCCN1C(=O)[C@H](CCCNC(=N)N)NC(=O)[C@H](Cc1c[nH]cn1)NC(=O)[C@H](CO)NC(=O)[C@H](Cc1c[nH]c2ccccc12)NC(=O)[C@@H](NC(=O)[C@H](Cc1c[nH]c2ccccc12)NC(=O)[C@H](CCC(=O)O)NC(=O)[C@@H](CCCCN)NC(=O)[C@@H](CCCCN)NC(=O)[C@@H](CC(C)C)NC(=O)[C@@H](CCC(=O)O)NC(=O)[C@H](NC(=O)[C@@H](C)NC(=O)[C@H](NC(=O)[C@@H](CC(N)=O)NC(=O)[C@@H](CC(C)C)NC(=O)[C@@H](C)NC(=O)[C@@H](Cc1c[nH]c2ccccc12)NC(=O)[C@H](NC(=O)[C@@H](C)NC(=O)CNC(=O)[C@@H](CC(N)=O)NC(=O)[C@@H](CO)NC(=O)[C@@H](CC(N)=O)NC(=O)[C@H](CCCCN)NC(=O)[C@H](Cc1c[nH]c2ccccc12)NC(=O)[C@@H](NC(=O)[C@H](Cc1c[nH]c2ccccc12)NC(=O)[C@@H](N)CCCCN)[C@@H](C)O)[C@H](C)O)C(C)C)[C@H](C)O)[C@@H](C)O)C(=O)N[C@@H](C)C(=O)N[C@@H](Cc1c[nH]cn1)C(=O)O [Retro-Tf-D-LP4]	–	–	–	able to cross the blood-brain barrier in vivo
CC[C@H](C)[C@H](NC(=O)[C@H](C)NC(=O)[C@@H](N)Cc1c[nH]cn1)C(=O)N[C@@H](Cc1ccc(O)cc1)C(=O)N1CCC[C@H]1C(=O)N[C@@H](CCCNC(=N)N)C(=O)N[C@@H](Cc1c[nH]cn1)C(=O)N[C@@H](CO)C(=O)N[C@@H](Cc1c[nH]c2ccccc12)C(=O)N[C@H](C(=O)N[C@@H](Cc1c[nH]c2ccccc12)C(=O)N[C@@H](CCC(=O)O)C(=O)N[C@H](CCCCN)C(=O)N[C@H](CCCCN)C(=O)N[C@H](CC(C)C)C(=O)N[C@H](CCC(=O)O)C(=O)N[C@@H](C(=O)N[C@H](C)C(=O)N[C@@H](C(=O)N[C@H](CC(N)=O)C(=O)N[C@H](CC(C)C)C(=O)N[C@H](C)C(=O)N[C@H](Cc1c[nH]c2ccccc12)C(=O)N[C@@H](C(=O)N[C@H](C)C(=O)NCC(=O)N[C@H](CC(N)=O)C(=O)N[C@H](CO)C(=O)N[C@H](CC(N)=O)C(=O)N[C@@H](CCCCN)C(=O)N[C@@H](Cc1c[nH]c2ccccc12)C(=O)N[C@H](C(=O)N[C@@H](Cc1c[nH]c2ccccc12)C(=O)N[C@@H](CCCCN)C(=O)O)[C@@H](C)O)[C@H](C)O)C(C)C)[C@H](C)O)[C@@H](C)O [Tf-D-LP4]	the majority of the cells were TUNEL-positive	effectively induce cell death	effectively induce cell death	–
